#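 Following 48 hours of exposure in 96-well plates, responses at five concentrations were used to interpolate endpoints linearly. GI50 = concentration required for 50% inhibition of growth.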 Activity calls are given as the source filed them. Rule as the data show it: active = GI50 up to about 1.1 µM and inactive = higher.
# How the values were obtained:
# Assay in all cases: NCI-60 cell line screen, 48 h
# TK-10 = test system: TK-10
# CAKI-1 = test system: CAKI-1
# HL-60 = test system: HL-60
# NCI-H23 = test system: NCI-H23
# SK-MEL-5 = test system: SK-MEL-5
# SK-OV-3 = test system: SK-OV-3
# UO-31 = test system: UO-31
# SR = test system: SR
# A549 = test system: A549
# SN12C = test system: SN12C
# A498 = test system: A498
# Malme-3M = test system: Malme-3M
# K562 = test system: K562
# HCT-15 = test system: HCT-15
# EKVX = test system: EKVX
# SK-MEL-28 = test system: SK-MEL-28
# SF-295 = test system: SF-295
# RXF 393 = test system: RXF 393
# LOX IMVI = test system: LOX IMVI
Structure (SMILES),GI50 (TK-10),GI50 (CAKI-1),GI50 (HL-60),GI50 (NCI-H23),GI50 (SK-MEL-5),GI50 (SK-OV-3),GI50 (UO-31),GI50 (SR),GI50 (A549),GI50 (SN12C),GI50 (A498),GI50 (Malme-3M),GI50 (K562),GI50 (HCT-15) [µM],GI50 (EKVX),GI50 (SK-MEL-28),GI50 (SF-295),GI50 (RXF 393),GI50 (LOX IMVI)
CCCCC1CC(c2cccc([N+](=O)[O-])c2)=NO1 (stereo unspecified),> 100 µM (inactive),63.5 µM (inactive),30.4 µM (inactive),80.9 µM (inactive),43.1 µM (inactive),> 100 µM (inactive),50.9 µM (inactive),> 100 µM (inactive),30.5 µM (inactive),> 100 µM (inactive),49.2 µM (inactive),> 100 µM (inactive),60.8 µM (inactive),> 100,58.2 µM (inactive),> 100 µM (inactive),97.7 µM (inactive),–,–
C=C(C)C1CC[C@]2(C(=O)O)CCC3(C)[C@H](CCC4[C@@]5(C)CC[C@H](OC6OC(CO)C(O)C6OC6OC(C)C(O)C(O)C6O)[C@@](C)(CO)C5CC[C@]43C)C12 (stereo partly specified),> 100 µM (inactive),–,> 100 µM (inactive),> 100 µM (inactive),> 100 µM (inactive),–,20.1 µM (inactive),> 100 µM (inactive),> 100 µM (inactive),> 100 µM (inactive),–,–,> 100 µM (inactive),> 100,> 100 µM (inactive),> 100 µM (inactive),> 100 µM (inactive),> 100 µM (inactive),> 100 µM (inactive)
Cc1cc(NS(=O)(=O)c2ccc(NC(=O)c3ccc(Cl)c4c(Nc5ccc(S(=O)(=O)Nc6cc(C)on6)cc5)c5ccccc5nc34)cc2)no1,31.3 µM (inactive),15.9 µM (inactive),21.3 µM (inactive),> 10 µM (inactive),23 µM (inactive),19.2 µM (inactive),15.9 µM (inactive),–,25.6 µM (inactive),18.6 µM (inactive),24.1 µM (inactive),16.2 µM (inactive),23.2 µM (inactive),18.7,39 µM (inactive),> 10 µM (inactive),23.8 µM (inactive),> 10 µM (inactive),18.5 µM (inactive)
C/C=C/C=N/N(c1nnc(-c2ccccc2)c(-c2ccccc2)n1)S(=O)(=O)c1ccc(C)cc1,14.9 µM (inactive),16.9 µM (inactive),2.33 µM (inactive),14 µM (inactive),8.22 µM (inactive),18.7 µM (inactive),5.74 µM (inactive),3.48 µM (inactive),12 µM (inactive),8.13 µM (inactive),14.3 µM (inactive),10.4 µM (inactive),6.37 µM (inactive),5.14,17.8 µM (inactive),13.5 µM (inactive),11 µM (inactive),–,3.6 µM (inactive)
CCc1cccc(C)c1NC(=O)CC1Sc2ccccc2NC1=O (stereo unspecified),93.1 µM (inactive),60.5 µM (inactive),18.1 µM (inactive),38 µM (inactive),23.4 µM (inactive),75.7 µM (inactive),30.1 µM (inactive),–,44.2 µM (inactive),> 100 µM (inactive),28.6 µM (inactive),27.3 µM (inactive),23.8 µM (inactive),39.3,91.8 µM (inactive),84.7 µM (inactive),95.7 µM (inactive),16.9 µM (inactive),48.8 µM (inactive)
O=C(/C=C/c1ccccc1O)c1cccnc1,> 100 µM (inactive),> 100 µM (inactive),> 100 µM (inactive),51.3 µM (inactive),> 100 µM (inactive),> 100 µM (inactive),> 100 µM (inactive),> 100 µM (inactive),> 100 µM (inactive),> 100 µM (inactive),> 100 µM (inactive),> 100 µM (inactive),> 100 µM (inactive),–,> 100 µM (inactive),> 100 µM (inactive),> 100 µM (inactive),> 100 µM (inactive),> 100 µM (inactive)
C(/C=C/N1CCCC1)=C\c1nc(N2CCCC2)c2ccccc2n1,41 µM (inactive),19.7 µM (inactive),23.4 µM (inactive),18.2 µM (inactive),19.1 µM (inactive),18.6 µM (inactive),15.7 µM (inactive),13.6 µM (inactive),48.5 µM (inactive),13.5 µM (inactive),> 100 µM (inactive),18.3 µM (inactive),12.5 µM (inactive),16.4,20.1 µM (inactive),22.9 µM (inactive),20.4 µM (inactive),–,17.5 µM (inactive)
O=C(O)CSc1nnc(-c2ccccc2)[nH]1,> 100 µM (inactive),> 100 µM (inactive),> 100 µM (inactive),> 100 µM (inactive),> 100 µM (inactive),> 100 µM (inactive),> 100 µM (inactive),–,> 100 µM (inactive),> 100 µM (inactive),> 100 µM (inactive),> 100 µM (inactive),> 100 µM (inactive),> 100,> 100 µM (inactive),> 100 µM (inactive),> 100 µM (inactive),> 100 µM (inactive),> 100 µM (inactive)
O=C1O[C@H](C(Cl)(Cl)Cl)N2CCCC12 (stereo partly specified),> 100 µM (inactive),> 100 µM (inactive),> 100 µM (inactive),> 100 µM (inactive),> 100 µM (inactive),> 100 µM (inactive),> 100 µM (inactive),–,> 100 µM (inactive),> 100 µM (inactive),> 100 µM (inactive),> 100 µM (inactive),> 100 µM (inactive),> 100,> 100 µM (inactive),> 100 µM (inactive),> 100 µM (inactive),> 100 µM (inactive),> 100 µM (inactive)
CC(=O)Oc1c(Br)ccc2cc(C(Br)Br)c(C(=O)c3ccccc3)nc12,17.7 µM (inactive),3.78 µM (inactive),–,20 µM (inactive),19.1 µM (inactive),–,19.2 µM (inactive),28.1 µM (inactive),24.3 µM (inactive),20 µM (inactive),–,24.9 µM (inactive),20.2 µM (inactive),22.8,22.5 µM (inactive),15.9 µM (inactive),18.7 µM (inactive),17.9 µM (inactive),23.9 µM (inactive)
COc1ccc(C2(Cl)C(Cl)(C(F)(F)F)C2(Cl)C(F)(F)F)cc1 (stereo unspecified),18.1 µM (inactive),16 µM (inactive),8.38 µM (inactive),14.7 µM (inactive),10.4 µM (inactive),16.7 µM (inactive),16 µM (inactive),10.2 µM (inactive),14.9 µM (inactive),15.8 µM (inactive),–,–,20.5 µM (inactive),14.2,17.5 µM (inactive),15.6 µM (inactive),14.8 µM (inactive),12.1 µM (inactive),6.68 µM (inactive)
CN(C(=O)C1CC1)C1C2CN3CCC(O2)C13 (stereo unspecified),> 100 µM (inactive),> 100 µM (inactive),> 100 µM (inactive),> 100 µM (inactive),> 100 µM (inactive),> 100 µM (inactive),> 100 µM (inactive),–,> 100 µM (inactive),> 100 µM (inactive),> 100 µM (inactive),> 100 µM (inactive),> 100 µM (inactive),> 100,> 100 µM (inactive),> 100 µM (inactive),> 100 µM (inactive),> 100 µM (inactive),> 100 µM (inactive)
Oc1nc(S)nc2c1CCCN2,> 100 µM (inactive),> 100 µM (inactive),> 100 µM (inactive),> 100 µM (inactive),> 100 µM (inactive),> 100 µM (inactive),> 100 µM (inactive),> 100 µM (inactive),> 100 µM (inactive),> 100 µM (inactive),–,> 100 µM (inactive),> 10 µM (inactive),> 100,> 100 µM (inactive),> 100 µM (inactive),> 100 µM (inactive),> 100 µM (inactive),> 100 µM (inactive)
C/C(=N/O)c1sc(-c2nc(C)c(/C(C)=N\O)s2)nc1C,–,> 100 µM (inactive),> 100 µM (inactive),> 100 µM (inactive),> 100 µM (inactive),> 100 µM (inactive),> 100 µM (inactive),> 100 µM (inactive),> 100 µM (inactive),> 100 µM (inactive),> 100 µM (inactive),> 100 µM (inactive),> 100 µM (inactive),> 100,> 100 µM (inactive),> 100 µM (inactive),> 100 µM (inactive),> 100 µM (inactive),> 100 µM (inactive)
COc1nc(NC2OCC(OC(C)=O)C(OC(C)=O)C2OC(C)=O)c(/N=C\C=N\c2c(NC3OCC(OC(C)=O)C(OC(C)=O)C3OC(C)=O)nc(OC)n(C)c2=O)c(=O)n1C (stereo unspecified),> 100 µM (inactive),–,> 100 µM (inactive),> 100 µM (inactive),> 100 µM (inactive),> 100 µM (inactive),> 100 µM (inactive),> 100 µM (inactive),> 100 µM (inactive),> 100 µM (inactive),> 100 µM (inactive),> 100 µM (inactive),> 100 µM (inactive),> 100,> 100 µM (inactive),> 100 µM (inactive),> 100 µM (inactive),> 100 µM (inactive),> 100 µM (inactive)
CC(C)(C)OC(=O)Cc1ccc2c(ccn2Cc2ccccc2)c1,79.6 µM (inactive),> 100 µM (inactive),28.2 µM (inactive),44.8 µM (inactive),31.4 µM (inactive),> 100 µM (inactive),37.9 µM (inactive),–,48.8 µM (inactive),52.1 µM (inactive),> 100 µM (inactive),> 100 µM (inactive),> 100 µM (inactive),12.8,81.8 µM (inactive),> 100 µM (inactive),75.2 µM (inactive),37.1 µM (inactive),47.4 µM (inactive)

# Source: ChEMBL document CHEMBL1201862, “PubChem BioAssay data set” (2004)
